The text below walks through data of article PMC3539763 (ACS medicinal chemistry letters, 2010).

Series [1] deals with rat mGlu5 (Rattus norvegicus, UniProt P31424). In words: calcium fluorescence. It counts as cell-based. The conditions noted are these: for less potent than 10e: potentiation EC50 relative to 10e.
Series [2] concerns the target mGlu5 (Rattus norvegicus, UniProt P31424). Nature of the series: radioligand binding with [3H]3-methoxy-PEPy. Particulars: at highest concentration, 30 μM; partial and incomplete; data not shown.
Series [3] concerns open field locomotor activity. In words: open field locomotor activity, compound dosed alone. It counts as in vivo, rat. Particulars: dosed alone at 56.6 mg/kg.
The nature of series [4]: transcellular permeability. The conditions noted are these: >20 × 10^-6 cm/sec is preferred for CNS targets.
Series [5] can be described thus: kinetic aqueous solubility screen. The conditions noted are these: aqueous medium.
Series [6] in a line: stability in rat liver microsomes. The conditions noted are these: after 60 min.
Series [7] is described as follows: stability in human liver microsomes. Particulars: after 60 min. For orientation: Liver microsomes are vesicles of endoplasmic reticulum, rich in cytochrome P450 enzymes.

Entries after “also recorded” stand apart in the source; their conditions may differ.

rat mGlu5, sequence (P31424 21-1203): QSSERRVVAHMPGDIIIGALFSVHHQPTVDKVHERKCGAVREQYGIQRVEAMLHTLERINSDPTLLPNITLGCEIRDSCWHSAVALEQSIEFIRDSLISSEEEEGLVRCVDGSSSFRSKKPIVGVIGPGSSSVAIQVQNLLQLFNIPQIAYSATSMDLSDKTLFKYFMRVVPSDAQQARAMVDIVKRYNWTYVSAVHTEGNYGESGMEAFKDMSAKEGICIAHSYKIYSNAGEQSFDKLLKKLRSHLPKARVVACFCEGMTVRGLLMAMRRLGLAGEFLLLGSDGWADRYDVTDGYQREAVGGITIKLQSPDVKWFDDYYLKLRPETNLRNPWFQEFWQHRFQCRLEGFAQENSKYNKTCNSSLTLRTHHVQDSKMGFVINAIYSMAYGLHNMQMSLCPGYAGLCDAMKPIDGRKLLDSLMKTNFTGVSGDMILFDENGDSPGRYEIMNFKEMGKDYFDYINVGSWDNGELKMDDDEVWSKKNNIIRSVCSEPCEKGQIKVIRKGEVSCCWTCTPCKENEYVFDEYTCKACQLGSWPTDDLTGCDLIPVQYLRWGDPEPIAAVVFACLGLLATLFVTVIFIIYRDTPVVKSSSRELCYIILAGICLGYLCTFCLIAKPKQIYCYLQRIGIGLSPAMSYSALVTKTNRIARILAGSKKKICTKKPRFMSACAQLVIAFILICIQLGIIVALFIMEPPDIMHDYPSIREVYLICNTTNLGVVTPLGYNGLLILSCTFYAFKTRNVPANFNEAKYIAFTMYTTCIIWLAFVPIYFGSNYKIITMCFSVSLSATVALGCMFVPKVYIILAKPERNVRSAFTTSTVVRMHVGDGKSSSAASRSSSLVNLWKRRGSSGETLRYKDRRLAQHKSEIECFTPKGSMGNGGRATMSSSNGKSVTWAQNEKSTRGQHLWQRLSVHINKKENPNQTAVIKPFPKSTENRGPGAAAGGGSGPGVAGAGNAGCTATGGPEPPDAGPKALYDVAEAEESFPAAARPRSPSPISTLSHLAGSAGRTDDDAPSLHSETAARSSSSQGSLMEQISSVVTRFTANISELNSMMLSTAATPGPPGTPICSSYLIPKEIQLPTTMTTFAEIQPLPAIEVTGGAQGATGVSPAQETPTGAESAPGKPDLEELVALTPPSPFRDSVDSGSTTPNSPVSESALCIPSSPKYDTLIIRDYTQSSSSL
mGlu5, sequence (P31424 21-1203): as above

With `COc1ccccc1N1CCN(C(=O)COCc2ccccc2)CC1` [10c], the “less potent than 10e” value in series [1] is listed as more than 5 fold.
For the compound `N#Cc1ccccc1N1CCN(C(=O)COCc2ccccc2)CC1` [10e], the “concentration at which compound alone slightly activates mGlu5” value in series [1] (CRC in absence of glutamate) is recorded as “above 30 μM”. Besides, the “mGlu5 agonism of compound alone” value in series [1] (compound alone, no glutamate, up to 10 μM) is “no inherent mGlu5 agonism; also recorded: no effect”. The “potency enhancement vs. lead 8” value in series [1] (potentiator of the glutamate EC20) was more than 3 fold. For the same compound, in series [2], the “displacement of [3H]3-methoxy-PEPy radioligand” value is listed as “ca. 50%”. Moreover, the “sedation / abnormal behavior in open field locomotor activity” value in series [3] is reported as “no sedation or abnormal behavior; also recorded: without causing sedation”. In addition, the transcellular permeability result in series [4] is reported as “acceptable”. The compound further displayed a solubility (kinetic) in series [5] of more than 30 µg/mL. In addition, the parent compound remaining entry in series [6] and in series [7] was “less than 5%” each time.
As for `COC(=O)c1ccccc1N1CCN(C(=O)COCc2ccccc2)CC1` [10f], in series [1], the “less potent than 10e” value is more than 5 fold.
In the case of `O=C(COCc1ccccc1)N1CCN(c2ncccn2)CC1` [10h], the EC50 in series [1] was more than 10 µM.

The solubility (kinetic) is solubility judged after dilution from a stock solution rather than from solid. Broadly, the EC50 is the concentration needed to bring the measured effect to its halfway point.
